Test results: the NIST ThermoML archive (doi:10.1021/je050498q)
± gives the expanded uncertainty stated by the source.

What was measured:
[1] = wn = mass fraction of the nth substance listed; details: 101 kPa, Liquid
[2] = refractive index (Na D-line) (dimensionless); wn = mass fraction of the nth substance listed; details: 298.15 K, 101 kPa, Liquid

O=C([O-])[C@H](O)[C@@H](O)C(=O)[O-].[Na+].[Na+] [disodium L-tartrate] + O
viscosity [mPa·s], [1]
Details | 298.15 K | 308.15 K | 318.15 K
w1 = 0.01986 | 0.932 ± 0.024 | 0.773 ± 0.02 | 0.644 ± 0.018
w1 = 0.03991 | 0.995 ± 0.025 | 0.824 ± 0.022 | 0.683 ± 0.018
w1 = 0.06024 | 1.06 ± 0.027 | 0.885 ± 0.023 | 0.726 ± 0.019
w1 = 0.08009 | 1.137 ± 0.028 | 0.952 ± 0.024 | 0.782 ± 0.021
w1 = 0.09999 | 1.23 ± 0.03 | 1.02 ± 0.026 | 0.832 ± 0.022
w1 = 0.12 | 1.321 ± 0.032 | 1.098 ± 0.028 | 0.894 ± 0.023
w1 = 0.14 | 1.431 ± 0.035 | 1.184 ± 0.03 | 0.959 ± 0.025
w1 = 0.16 | 1.56 ± 0.038 | 1.278 ± 0.032 | 1.024 ± 0.026
w1 = 0.1795 | 1.706 ± 0.041 | 1.38 ± 0.034 | 1.101 ± 0.028
w1 = 0.2007 | 1.891 ± 0.045 | 1.519 ± 0.037 | 1.215 ± 0.03
w1 = 0.2196 | 2.086 ± 0.049 | 1.669 ± 0.04 | 1.334 ± 0.033
w1 = 0.2402 | 2.301 ± 0.054 | 1.857 ± 0.045 | 1.475 ± 0.036
w1 = 0.26 | 2.563 ± 0.06 | 2.055 ± 0.049 | 1.647 ± 0.04
w1 = 0.2806 | 2.897 ± 0.067 | 2.305 ± 0.055 | 1.846 ± 0.044

[2]
Details | refractive index
w1 = 0.0099 | 1.3343 ± 0.0007
w1 = 0.0192 | 1.336 ± 0.0007
w1 = 0.0282 | 1.3373 ± 0.0007
w1 = 0.0371 | 1.3389 ± 0.0007
w1 = 0.046 | 1.3405 ± 0.0007
w1 = 0.0547 | 1.3418 ± 0.0007
w1 = 0.0625 | 1.3432 ± 0.0007
w1 = 0.0714 | 1.3447 ± 0.0007
w1 = 0.0793 | 1.346 ± 0.0007
w1 = 0.0872 | 1.3475 ± 0.0007
w1 = 0.0948 | 1.3486 ± 0.0007
w1 = 0.1026 | 1.3502 ± 0.0007
w1 = 0.1098 | 1.3511 ± 0.0007
w1 = 0.1169 | 1.3526 ± 0.0007
w1 = 0.1223 | 1.3535 ± 0.0007
w1 = 0.1314 | 1.3551 ± 0.0006
w1 = 0.1361 | 1.3557 ± 0.0006
w1 = 0.1437 | 1.3572 ± 0.0006
w1 = 0.1514 | 1.3584 ± 0.0006
w1 = 0.1577 | 1.3594 ± 0.0006
w1 = 0.1646 | 1.3607 ± 0.0006
w1 = 0.1697 | 1.3616 ± 0.0006
w1 = 0.1769 | 1.363 ± 0.0006
w1 = 0.1825 | 1.3639 ± 0.0006
w1 = 0.1886 | 1.3649 ± 0.0006
w1 = 0.1941 | 1.366 ± 0.0006
w1 = 0.1996 | 1.3668 ± 0.0006
w1 = 0.2048 | 1.3677 ± 0.0006
w1 = 0.2116 | 1.3689 ± 0.0006
w1 = 0.2167 | 1.3697 ± 0.0006
w1 = 0.2221 | 1.3707 ± 0.0006
w1 = 0.2281 | 1.3719 ± 0.0006
w1 = 0.2328 | 1.3728 ± 0.0006
w1 = 0.243 | 1.3744 ± 0.0006
w1 = 0.2493 | 1.3755 ± 0.0006
w1 = 0.2577 | 1.377 ± 0.0006
w1 = 0.2622 | 1.3778 ± 0.0006
w1 = 0.2681 | 1.379 ± 0.0006
w1 = 0.2757 | 1.3802 ± 0.0006
w1 = 0.2859 | 1.3821 ± 0.0006
w1 = 0.2979 | 1.384 ± 0.0006
w1 = 0.3085 | 1.3861 ± 0.0006
